Measured values: patent US10457707B2, “Substituted urea depsipeptide analogs as activators of the CLPP endopeptidase” (priority 2015, dated 2019)
*1 amine or outer side, *2 acyl side, *3 side chain or, on linkers, in order; H or OH if unused. Where a SMILES comes first, the peptide text is derived from it. Bridges are numbered along the chain shown (N, C = ends). [ ]: non-standard residue; d: D form. The star is where a group is joined. ξ: configuration not given here. Phe(3,5-F2) = N[C@@H](Cc1cc(F)cc(F)c1)C(=O)O; NMepT = CN[C@H](C(=O)O)[C@@H](C)OP(=O)(O)O; NH(4-OCF3-phenyl) = FC(F)(F)Oc1ccc(N*)cc1; Pro(4S-Me) = C[C@@H]1CN[C@H](C(=O)O)C1; Pro(4R-Me) = C[C@H]1CN[C@H](C(=O)O)C1; ξPro(4R-OH) = O=C(O)C1C[C@@H](O)CN1; ξPro(4R-Me) = C[C@H]1CNC(C(=O)O)C1; NH(4-Et-phenyl) = CCc1ccc(N*)cc1; NMeT = CN[C@H](C(=O)O)[C@@H](C)O; NH(4-Me-phenyl) = Cc1ccc(N*)cc1; aThr = C[C@H](O)[C@H](N)C(=O)O; NMeA = CN[C@@H](C)C(=O)O; CO = O=C([*:1])[*:2]

What was measured:
[1] = target: T1, Sa-ClpP (Staphylococcus aureus, UniProt Q2G036); assay: Sa-ClpP casein-BODIPY ClpP activation assay, method variant not marked in Table 5; assay type: biochemical, S. aureus; details: values without ** or † mark; assay variant not stated; read-out: ClpP Activation EC50
T1 construct: made in house; host or cells: E. coli BL21(DE3)
T1 sequence (Q2G036 1-195): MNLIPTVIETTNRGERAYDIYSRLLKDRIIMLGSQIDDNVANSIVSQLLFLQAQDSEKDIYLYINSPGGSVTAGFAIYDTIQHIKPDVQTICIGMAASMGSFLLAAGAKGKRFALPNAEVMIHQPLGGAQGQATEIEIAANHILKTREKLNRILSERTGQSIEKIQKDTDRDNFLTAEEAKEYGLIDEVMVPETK
Procedure, shortened: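 EC50 for activation derived by dose-response fitting of casein digestion rates, run in triplicate. Conditions: 37° C, pH 8 buffer with 200 mM KCl and 1 mM TCEP, 10 μM Sa-ClpP, 25 μg/ml BODIPY FL casein, compound at 0-1000 μM; signal at 485/528 nm followed 45 min.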

[2] = physchem; details: 22 °C, aqueous buffer, kinetic from dmso stock
[3] = target: T1, Sa-ClpP; assay: Casein-BODIPY assay, second described ClpP activation method (EnzCheck Protease Assay, 384 well); assay type: biochemical, S. aureus; details: values marked †: second described ClpP activation assay
Description: Alternatively, the assay was carried out using EnzCheck Protease Assay (Molecular Probes, Catalog # E6638). The assay was performed in black 384 well, flat bottom, low volume plates (Greiner Bio-One, Monroe, N.C., catalog #784076). 10 μL of Tris*HCl buffer, pH 8.0 with 0.01% Triton X-100 was pipetted into each well using a Well-Mate (Thermo Scientific, Waltham, Mass.). 0.4 μL test compounds or controls (2% DMSO v/v) were added to each well using a Biomek FX liquid handling robot (Beckman Coulter, Indianapolis Ind.). After addition of test compounds and controls, 10 μL of master mix containing 2 μM Sa-ClpP and 2 μM substrate (Bodipy-FL labeled casein) in Tris*HCl buffer, pH 8.0 with 0.01% (v/v) Triton X-100, was pipetted into each well. All assays were performed in triplicate, under linear velocity conditions. Increase in fluorescent signal following activation of Sa-ClpP by test compounds and controls was measured over time period of 30 mins using filters with excitation at 485±15 nm and emission at 520±25 nm on a PHERAstar FS Multilabel reader (BMG, Cary, N.C.). […] Data analysis was done by measuring rate of casein degradation over time (slopes). Computed degradation rates (slopes) were normalized to positive (ADEP4) or negative (DMSO) controls. Using nonlinear regression curve fitting EC50 values and % activation were determined using the equation “log [agonist] vs. Response-variable slope (four parameters)-symmetrical” in the program Prism 6 (GraphPad Software, La Jolla, Calif. USA, www.graphpad.com).

| Compound | EC50 [1] [nM] | solubility [2] [µM] | EC50 [3] [nM] |
| --- | --- | --- | --- |
| Cc1ccc(NC(=O)N[C@@H](Cc2cc(F)cc(F)c2)C(=O)N[C@@H]2C(=O)N3CCC[C@H]3C(=O)N(C)[C@@H]([C@@H](C)OP(=O)(O)O)C(=O)N[C@@H](C)C(=O)N3C[C@@H](C)C[C@H]3C(=O)O[C@H]2C)cc1 [Compound 188, (R)-1-((2S,6S,9S,11aS,17S,18S,20aS)-17-((S)-3-(3,5-difluorophenyl)-2-(3-(p-tolyl)ureido)propanamido)-2,6,10,18-tetramethyl-5,8,11,16,20-pentaoxohexadecahydro-1H,5H,16H-dipyrrolo[2,1-c:2′,1′-l][1]oxa[4,7,10,13]tetraazacyclohexadecin-9-yl)ethyl dihydrogen phosphate] ({NH(4-Me-phenyl)-CO}-[Phe(3,5-F2)][aThr]P[NMepT]A[Pro(4S-Me)]; ester 2-C) | 1800 ± 70 | 107 ± 2.7 |  |
| CCc1ccc(NC(=O)N[C@@H](Cc2cc(F)cc(F)c2)C(=O)N[C@@H]2C(=O)N3CCC[C@H]3C(=O)N(C)[C@@H]([C@@H](C)O)C(=O)N[C@@H](C)C(=O)N3C[C@H](C)C[C@H]3C(=O)O[C@H]2C)cc1 [Compound 42, (S)-3-(3,5-difluorophenyl)-2-(3-(4-ethylphenyl)ureido)-N-((2R,6S,9S,11aS,17S,18S,20aS)-9-((R)-1-hydroxyethyl)-2,6,10,18-tetramethyl-5,8,11,16,20-pentaoxohexadecahydro-1H,5H,16H-dipyrrolo[2,1-c:2′,1′-l][1]oxa[4,7,10,13]tetraazacyclohexadecin-17-yl)propanamide] ({NH(4-Et-phenyl)-CO}-[Phe(3,5-F2)][aThr]P[NMeT]A[Pro(4R-Me)]; ester 2-C) |  |  | 250 ± 30 |
| Cc1ccc(NC(=O)N[C@@H](Cc2cc(F)cc(F)c2)C(=O)N[C@@H]2C(=O)N3CCC[C@H]3C(=O)N(C)[C@@H]([C@@H](C)O)C(=O)N[C@@H](C)C(=O)N3C[C@H](C)C[C@H]3C(=O)O[C@H]2C)cc1 [Compound 38, (S)-3-(3,5-difluorophenyl)-N-((2R,6S,9S,11aS,17S,18S,20aS)-9-((R)-1-hydroxyethyl)-2,6,10,18-tetramethyl-5,8,11,16,20-pentaoxohexadecahydro-1H,5H,16H-dipyrrolo[2,1-c:2′,1′-l][1]oxa[4,7,10,13]tetraazacyclohexadecin-17-yl)-2-(3-(p-tolyl)ureido)propanamide] ({NH(4-Me-phenyl)-CO}-[Phe(3,5-F2)][aThr]P[NMeT]A[Pro(4R-Me)]; ester 2-C) |  |  | 330 ± 10 |
| Cc1ccc(NC(=O)N[C@@H](Cc2cc(F)cc(F)c2)C(=O)N[C@@H]2C(=O)N3C[C@H](O)CC3C(=O)N(C)[C@@H](C)C(=O)N[C@@H](C)C(=O)N3C[C@H](C)CC3C(=O)O[C@H]2C)cc1 (stereo partly drawn) [Compound 31, (S)-3-(3,5-difluorophenyl)-N-((2S,6S,9S,11aS,13R,17S,18S,20aS)-13-hydroxy-2,6,9,10,18-pentamethyl-5,8,11,16,20-pentaoxohexadecahydro-1H,5H,16H-dipyrrolo[2,1-c:2′,1′-l][1]oxa[4,7,10,13]tetraazacyclohexadecin-17-yl)-2-(3-(p-tolyl)ureido)propanamide] ({NH(4-Me-phenyl)-CO}-[Phe(3,5-F2)][aThr][ξPro(4R-OH)][NMeA]A[ξPro(4R-Me)]; ester 2-C) |  |  | 370 ± 30 |
| C[C@H]1C[C@H]2C(=O)O[C@@H](C)[C@H](NC(=O)[C@H](Cc3cc(F)cc(F)c3)NC(=O)Nc3ccc(OC(F)(F)F)cc3)C(=O)N3CCC[C@H]3C(=O)N(C)[C@@H]([C@@H](C)O)C(=O)N[C@@H](C)C(=O)N2C1 [Compound 36, (S)-3-(3,5-difluorophenyl)-N-((2S,6S,9S,11aS,17S,18S,20aS)-9-((R)-1-hydroxyethyl)-2,6,10,18-tetramethyl-5,8,11,16,20-pentaoxohexadecahydro-1H,5H,16H-dipyrrolo[2,1-c:2′,1′-l][1]oxa[4,7,10,13]tetraazacyclohexadecin-17-yl)-2-(3-(4-(trifluoromethoxy)phenyl)ureido)propanamide] ({NH(4-OCF3-phenyl)-CO}-[Phe(3,5-F2)][aThr]P[NMeT]A[Pro(4S-Me)]; ester 2-C) |  |  | 430 ± 10 |
| Cc1ccc(NC(=O)N[C@@H](Cc2cc(F)cc(F)c2)C(=O)N[C@@H]2C(=O)N3CCC[C@H]3C(=O)N(C)[C@@H]([C@@H](C)O)C(=O)N[C@@H](C)C(=O)N3C[C@@H](C)C[C@H]3C(=O)O[C@H]2C)cc1 [Compound 35, (S)-3-(3,5-difluorophenyl)-N-((2S,6S,9S,11aS,17S,18S,20aS)-9-((R)-1-hydroxyethyl)-2,6,10,18-tetramethyl-5,8,11,16,20-pentaoxohexadecahydro-1H,5H,16H-dipyrrolo[2,1-c:2′,1′-l][1]oxa[4,7,10,13]tetraazacyclohexadecin-17-yl)-2-(3-(p-tolyl)ureido)propanamide] ({NH(4-Me-phenyl)-CO}-[Phe(3,5-F2)][aThr]P[NMeT]A[Pro(4S-Me)]; ester 2-C) |  |  | 480 ± 30 |
| C[C@@H]1C[C@H]2C(=O)O[C@@H](C)[C@H](NC(=O)[C@H](Cc3cc(F)cc(F)c3)NC(=O)Nc3ccc(OC(F)(F)F)cc3)C(=O)N3CCC[C@H]3C(=O)N(C)[C@@H]([C@@H](C)O)C(=O)N[C@@H](C)C(=O)N2C1 [Compound 41, (S)-3-(3,5-difluorophenyl)-N-((2R,6S,9S,11aS,17S,18S,20aS)-9-((R)-1-hydroxyethyl)-2,6,10,18-tetramethyl-5,8,11,16,20-pentaoxohexadecahydro-1H,5H,16H-dipyrrolo[2,1-c:2′,1′-l][1]oxa[4,7,10,13]tetraazacyclohexadecin-17-yl)-2-(3-(4-(trifluoromethoxy)phenyl)ureido)propanamide] ({NH(4-OCF3-phenyl)-CO}-[Phe(3,5-F2)][aThr]P[NMeT]A[Pro(4R-Me)]; ester 2-C) |  |  | 310 ± 10 |
